# Assay results taken from ChEMBL document CHEMBL5532675, “Discovery of 4-Ethoxy-6-chloro-5-azaindazoles as Novel PDE4 Inhibitors for the Treatment of Alcohol Use Disorder and Alcoholic Liver Diseases” (J Med Chem, 2024).
# Target: T1, 3',5'-cyclic-AMP phosphodiesterase 4D (Homo sapiens, UniProt Q08499)
# Assay: Inhibition of PDE4D7 (unknown origin) using FAM-cyclic-3',5'-AMP as substrate at 10 nM incubated for 1 hrs by fluorescence polarization based IMAP assay relative to control
# T1 sequence (Q08499 whole entry): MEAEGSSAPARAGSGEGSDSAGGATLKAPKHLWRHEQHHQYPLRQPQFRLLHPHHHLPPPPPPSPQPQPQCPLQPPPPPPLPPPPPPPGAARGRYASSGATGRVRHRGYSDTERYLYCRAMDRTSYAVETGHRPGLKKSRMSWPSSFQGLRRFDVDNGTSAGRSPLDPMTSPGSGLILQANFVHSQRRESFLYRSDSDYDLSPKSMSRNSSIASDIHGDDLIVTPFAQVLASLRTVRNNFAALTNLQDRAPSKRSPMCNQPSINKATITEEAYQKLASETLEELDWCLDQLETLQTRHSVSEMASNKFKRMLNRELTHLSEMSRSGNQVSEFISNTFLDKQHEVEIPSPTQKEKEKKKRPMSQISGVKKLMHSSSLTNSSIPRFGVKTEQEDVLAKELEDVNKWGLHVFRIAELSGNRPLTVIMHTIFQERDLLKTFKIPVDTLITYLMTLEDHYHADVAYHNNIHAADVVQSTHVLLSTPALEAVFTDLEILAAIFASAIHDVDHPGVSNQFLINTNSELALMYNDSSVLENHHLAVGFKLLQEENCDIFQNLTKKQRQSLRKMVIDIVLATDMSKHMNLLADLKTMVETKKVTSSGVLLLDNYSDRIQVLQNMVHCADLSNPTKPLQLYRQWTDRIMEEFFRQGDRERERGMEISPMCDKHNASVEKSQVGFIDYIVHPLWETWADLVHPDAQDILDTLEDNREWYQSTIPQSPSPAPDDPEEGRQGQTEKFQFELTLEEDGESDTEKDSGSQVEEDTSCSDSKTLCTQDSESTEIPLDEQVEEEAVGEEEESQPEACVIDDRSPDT
row,inhibition,Structure (SMILES)
1,3%,CCOc1nc(Cl)cc2c1cnn2CC(=O)O
2,9%,CCOc1nc(Cl)cc2c1cnn2CCC(=O)NO
3,3%,CCOc1nc(Cl)cc2c1cnn2CC#N
4,4%,CCOc1nc(Cl)cc2c1cnn2CC(=O)NC
5,3%,CCOc1nc(Cl)cc2c1cnn2CC(N)=O
6,4%,CCOc1nc(Cl)cc2c1cnn2CC(=O)NOC
7,3%,CCOc1nc(Cl)cc2c1cnn2CCO

# The next lines start with the molecule.
row,Structure (SMILES),inhibition
1,CCOc1nc(Cl)cc2c1c(NCC(C)C)nn2CCCC(=O)O,6%
2,CCOc1nc(Cl)cc2c1cnn2CC(=O)N(C)O,5%
3,CCOc1nc(Cl)cc2c1c(C)nn2CCCC(=O)O,6%
4,CCOc1nc(Cl)cc2c1c(Nc1ccccc1)nn2CCCC(=O)O,7%
5,CCOc1nc(Cl)cc2c1cnn2CCCC(=O)NO,5%
6,CCOc1nc(Cl)cc2nn(CCO)cc12,6%
7,CCOc1nc(Cl)cc2c1c(-c1ccncc1)nn2CCCC(=O)O,5%
8,CCOc1nc(Cl)cc2c1c(C1CCCCC1)nn2CCCC(=O)O,6%
9,CCOc1nc(Cl)cc2c1c(/C=C/c1ccc(OC)cc1)nn2CCCC(=O)O,2%
10,CCOc1nc(Cl)cc2c1c(C(F)(F)F)nn2CCCC(=O)O,23%
11,CCOc1nc(Cl)cc2c1c(C1CC1)nn2CCCC(=O)O,8%
12,CCOc1nc(Cl)cc2c1c(-c1cccnc1)nn2CCCC(=O)O,4%
13,CCOc1nc(Cl)cc2c1cnn2CCCO,5%
14,CCOc1nc(Cl)cc2nn(CCCC(=O)O)cc12,6%
15,CCOc1nc(Cl)cc2c1cnn2CCC(=O)O,8%
16,CCOc1nc(Cl)cc2nn(CCCCO)cc12,4%
17,CCOc1nc(Cl)cc2c1c(NCc1ccccc1)nn2CCCC(=O)O,4%
18,CCOc1nc(Cl)cc2c1c(CC)nn2CCCC(=O)O,15%
19,CCOc1nc(Cl)cc2c1cnn2CCCCO,5%
20,CCOc1nc(Cl)cc2c1c(-c1cccc(OC)c1)nn2CCCC(=O)O,3%
21,CCOc1nc(Cl)cc2c1c(-c1ccc(OC)cc1)nn2CCCC(=O)O,7%
22,CCOc1nc(Cl)cc2nn(CC(=O)O)cc12,5%

# Target: T1, 3',5'-cyclic-AMP phosphodiesterase 4D
# Assay: Inhibition of PDE4D7 (unknown origin) using FAM-cyclic-3',5'-AMP as substrate at 100 nM incubated for 1 hrs by fluorescence polarization based IMAP assay relative to control
row,inhibition,Structure (SMILES)
1,3%,CCOc1nc(Cl)cc2c1cnn2C1CCS(=O)(=O)CC1
2,5%,CCOc1nc(C)cc2c1cnn2C1CCOCC1
3,7%,CCOc1nc(Cl)cc2c1cnn2CC1(C)COC1
4,3%,CCOc1nc(Cl)cc2c1cnn2CC(=O)O
5,4%,CCOc1nc(Cl)cc2c1cnn2CC1CCCO1 (stereo not drawn)
6,18%,CCOc1nc(Cl)cc2c1cnn2CCC(=O)NO
7,1%,CCOc1nccc2c1cnn2C1CCOCC1
8,5%,CCOc1nc(Cl)cc2c1cnn2CC#N
9,5%,CCOc1nc(Cl)cc2c1cnn2C1CCSCC1
10,4%,CCOc1nc(Cl)cc2c1cnn2CC(=O)NC
11,3%,CCOc1nc(Cl)cc2c1cnn2CC(N)=O
12,6%,CCOc1nc(Cl)cc2c1cnn2CC(=O)NOC
13,9%,CCOc1nc(Cl)cc2c1cnn2CC1CCOC1 (stereo not drawn)
14,4%,CCOc1nc(Cl)cc2c1cnn2CCO

# Continued, molecule first:
row,Structure (SMILES),inhibition
1,CCOc1nc(Cl)cc2c1cnn2-c1ccc(OC)cc1,5%
2,CCOc1nc(Cl)cc2c1c(NCC(C)C)nn2CCCC(=O)O,27%
3,CCOc1nc(Cl)cc2nn(CC3CCCO3)cc12 (stereo not drawn),10%
4,CCOc1nc(Cl)cc2c1cnn2CC(=O)N(C)O,8%
5,CCOc1nc(Cl)cc2c1c(C)nn2CCCC(=O)O,11%
6,CCOc1nc(Cl)cc2c1c(Nc1ccccc1)nn2CCCC(=O)O,9%
7,CCOc1nc(Cl)cc2c1cnn2CCCC(=O)NO,19%
8,CCOc1nc(Cl)cc2nn(CCO)cc12,5%
9,CCOc1nc(Cl)cc2c1c(-c1ccncc1)nn2CCCC(=O)O,24%
10,CCOc1nc(Cl)cc2nn(-c3cccc(OC)c3)cc12,8%
11,CCOc1nc(Cl)cc2c1c(C1CCCCC1)nn2CCCC(=O)O,11%
12,CCOc1nc(Cl)cc2c1c(/C=C/c1ccc(OC)cc1)nn2CCCC(=O)O,5%
13,CCOc1nc(Cl)cc2c1c(C(F)(F)F)nn2CCCC(=O)O,53%
14,CCOc1nc(Cl)cc2c1c(C1CC1)nn2CCCC(=O)O,13%
15,CCOc1nc(Cl)cc2c1c(-c1cccnc1)nn2CCCC(=O)O,9%
16,CNc1nc(Cl)cc2nn(C3CCOCC3)cc12,17%
17,CCOc1nc(Cl)cc2c1cnn2CCCO,8%
18,CCOc1nc(Cl)cc2c1cnn2-c1cccc(OC)c1,7%
19,CCOc1nc(Cl)cc2nn(CCCC(=O)O)cc12,8%
20,CCOc1nc(Cl)cc2c1cnn2CCC(=O)O,19%
21,CCOc1nc(Cl)cc2c1cnn2Cc1cccnc1,5%
22,CCOc1nc(Cl)cc2nn(CCCCO)cc12,3%
23,CCOc1nc(Cl)cc2c1c(NCc1ccccc1)nn2CCCC(=O)O,18%
24,CCOc1nc(Cl)cc2c1c(CC)nn2CCCC(=O)O,48%
25,CCOc1nc(Cl)cc2c1cnn2CCCCO,6%
26,CCOc1nc(Cl)cc2c1c(-c1cccc(OC)c1)nn2CCCC(=O)O,6%
27,CCOc1nc(Cl)cc2c1cnn2C(C)c1ccc(C(F)(F)F)cc1 (stereo not drawn),14%
28,CCOc1nc(Cl)cc2c1c(-c1ccc(OC)cc1)nn2CCCC(=O)O,16%
29,CCOc1nc(Cl)cc2nn(C3CCOCC3)cc12,35%
30,CCOc1nc(Cl)cc2nn(CC(=O)O)cc12,7%
